pIC50: −log10 of the molar value. Activity calls are given as the source filed them. The rule behind the calls is not given here.

For data set [1], the system named is Isocitrate dehydrogenase [NADP] cytoplasmic (Homo sapiens), O75874 [R132H]. The data set is described as follows: Inhibition of recombinant human IDH1 R132H mutant extracted from Escherichia coli BL21 (DE3) cells using alpha-ketoglutarate as substrate at 0.2 uM incubated for 60 mins in presence of NADPH by absorbance based assay relative to control.
Chain of Isocitrate dehydrogenase [NADP] cytoplasmic (Homo sapiens), O75874 [R132H] (O75874 whole entry R132H): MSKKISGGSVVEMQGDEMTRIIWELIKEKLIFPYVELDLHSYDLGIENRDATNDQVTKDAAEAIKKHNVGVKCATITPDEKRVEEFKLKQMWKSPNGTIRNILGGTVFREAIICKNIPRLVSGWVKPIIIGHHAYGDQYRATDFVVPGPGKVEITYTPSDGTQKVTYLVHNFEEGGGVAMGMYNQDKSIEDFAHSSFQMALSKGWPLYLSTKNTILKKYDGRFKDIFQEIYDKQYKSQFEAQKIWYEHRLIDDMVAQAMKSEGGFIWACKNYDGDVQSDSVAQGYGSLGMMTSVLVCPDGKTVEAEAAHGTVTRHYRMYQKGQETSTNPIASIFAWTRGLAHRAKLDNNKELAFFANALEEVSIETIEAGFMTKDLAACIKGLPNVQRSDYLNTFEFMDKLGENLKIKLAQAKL
The test system is the same in data set [2]. Nature of the data set: Inhibition of recombinant human IDH1 R132H mutant extracted from Escherichia coli BL21 (DE3) cells using alpha-ketoglutarate as substrate at 2 uM incubated for 60 mins in presence of NADPH by absorbance based assay relative to control.
Data set [3] has as its system Isocitrate dehydrogenase [NADP] cytoplasmic (Homo sapiens), O75874 [R132C]. The data set is described as follows: Inhibition of recombinant human IDH1 R132C mutant extracted from Escherichia coli BL21 (DE3) cells using alpha-ketoglutarate as substrate at 2 uM incubated for 60 mins in presence of NADPH by absorbance based assay relative to control.
Data set [4] shares this test system. The data set is described as follows: Inhibition of recombinant human IDH1 R132C mutant extracted from Escherichia coli BL21 (DE3) cells using alpha-ketoglutarate as substrate at 0.2 uM incubated for 60 mins in presence of NADPH by absorbance based assay relative to control.
In data set [5] the test system is L02. Nature of the data set: Cytotoxicity against human L02 cells assessed as inhibition of cell growth at 50 uM. It is filed as toxicity, cell-based. The conditions noted are these: l02, 50 µM.
The subject of data set [6] is Isocitrate dehydrogenase [NADP] cytoplasmic (Homo sapiens), O75874 [R132H]. The data set is described as follows: Inhibition of IDH1 R132H mutant in human U-87 MG cells assessed as reduction in 2-HG level at 10 uM incubated for 48 hrs in presence of NAD+ by resazurin fluorescence dye based Sigma MAK320-1 assay kit analysis relative to control. In kind it is cell-based.

Data set [7] deals with Isocitrate dehydrogenase [NADP] cytoplasmic (Homo sapiens, UniProt O75874). The data set is described as follows: Inhibition of recombinant human wildtype IDH1 extracted from Escherichia coli BL21 (DE3) cells using alpha-ketoglutarate as substrate incubated for 60 mins in presence of NADPH by absorbance based assay.
Chain of Isocitrate dehydrogenase [NADP] cytoplasmic (O75874 whole entry): as the sequence (O75874 whole entry R132H) above, with H132R counted along it

Chain of Isocitrate dehydrogenase [NADP] cytoplasmic (Homo sapiens), O75874 [R132C] (O75874 whole entry R132C): as the sequence (O75874 whole entry R132H) above, with H132C counted along it

`COc1cc(O)c(-c2cc(-c3ccc(O)cc3)nc(N3CCCCC3)n2)cc1CC=C(C)C`: the inhibition (in general, the relative decrease from the control value, in per cent) in data set [1] is 9.4%; in data set [2], 93.6%; in data set [3], 89.7%; in data set [4] it was 11.8%.
Consider `COc1cc(O)c(-c2cc(-c3ccc(O)cc3)ncn2)cc1CC=C(C)C`, for which the inhibition in data set [1] came out at 13.4%; in data set [2] it was 47.2%; in data set [3], 58.6%; in data set [4] it was 17.8%. Besides, in data set [5], the Activity result is on record as “Toxic”.
Regarding `COc1cc(OC)c(C(=O)/C=C/c2ccc(O)cc2)cc1CC=C(C)C`, the inhibition result in data set [1], in data set [2], in data set [3] and in data set [4] was “inactive” in each case.
Turning to `COc1cc(O)c(-c2cc(-c3ccc(O)cc3)nc(-c3nccs3)n2)cc1CC=C(C)C`, the results for the inhibition in data set [1], in data set [2] and in data set [3] were 11.1%, 61.1% and 56.3%, respectively. Besides, the inhibition result in data set [4] was “inactive”.
Taken in the same sequence, the figures for `COc1cc(O)c(-c2cc(-c3ccc(O)cc3)nc(N3CCN(C(C)=O)CC3)n2)cc1CC=C(C)C` were 34.7%, 61.2%, 69.4% and 12.8%.
Taken in the same sequence, the figures for `COc1cc(O)c(-c2cc(-c3ccc(O)cc3)nc(N)n2)cc1CC=C(C)C` were 11.2%, 30.7%, 47.5% and 8.9%.
As to `COc1ccc(-c2cc(-c3cc(CC=C(C)C)c(OC)cc3OC)nc(-c3ncccn3)n2)cc1`, the inhibition in data set [1] worked out at 12.1%; in data set [2], 87.3%; in data set [3] it was 92.4%; in data set [4], 24.7%. Moreover, the Activity entry in data set [5] is given as “Toxic”.
With `COc1cc(O)c(-c2cc(-c3ccc(O)cc3)nc(-c3ncccn3)n2)cc1CC=C(C)C`, the inhibition in data set [1] is 41.3%; in data set [2] it was above 100%; in data set [3] it was above 100%; in data set [4] it was 14.6%.
Take `COc1cc(O)c(-c2cc(-c3ccc(O)cc3)nc(C3CCCO3)n2)cc1CC=C(C)C` (stereo unspecified): the inhibition in data set [1] was determined as 14.7%; in data set [2] it was 60.1%; in data set [3], 70.4%; in data set [4], 13.4%.
Turning to `COc1cc(O)c(-c2cc(-c3ccc(O)cc3)nc(-c3cccnc3)n2)cc1CC=C(C)C`, the inhibition in data set [1] was 17.7%; in data set [2], 48.3%; in data set [3] it was 57.9%; in data set [4], 20.3%. Besides, the Activity entry in data set [5] is listed as “Toxic”.
For `COc1cc(O)c(-c2cc(-c3ccc(O)cc3)nc(-c3cnccn3)n2)cc1CC=C(C)C`, the inhibition in data set [1] came to 17.2%; in data set [2], 81.8%; in data set [3], 67.3%; in data set [4], 24.5%.
On to `COc1cc(O)c(-c2cc(-c3ccc(O)cc3)nc(C)n2)cc1CC=C(C)C`, for which the inhibition is 13.6% in data set [1], 49.1% in data set [2], 67.2% in data set [3] and 12.5% in data set [4]. The Activity result in data set [5] is reported as “Toxic”.
As to `COc1cc(O)c(-c2cc(-c3ccc(O)cc3)nc(-c3ccncc3Cl)n2)cc1CC=C(C)C`, the inhibition in data set [1] turned out to be 10.5%; in data set [2], 95.1%; in data set [3], 74.1%; in data set [4], 14.9%.
Taken in the same sequence, the figures for `CCCCc1nc(-c2ccc(O)cc2)cc(-c2cc(CC=C(C)C)c(OC)cc2O)n1` were 7.6%, 51.6%, 41.2% and 10.3%.
Take `O=C(/C=C/c1ccc(O)cc1)OC[C@H]1O[C@@H](Oc2c(-c3ccc(O)cc3)oc3cc(O)cc(O)c3c2=O)[C@H](O)[C@@H](O)[C@@H]1O` [TILIROSIDE]: the inhibition in data set [6] is below 10%; in data set [2] it was 58.1%. For the same molecule, in data set [7], the pIC50 (as a rule, the negative decadic logarithm of the IC50, by convention in mol/L) is below 4.70.
In the case of `COc1cc(O)c(-c2cc(-c3ccc(O)cc3)nc(N3CCCC3)n2)cc1CC=C(C)C`, the inhibition in data set [1] amounted to 5%; in data set [2] it was 70.2%; in data set [3], 84.3%; in data set [4] it was 30.9%.
Taken in the same sequence, the figures for `COc1cc(O)c(-c2cc(-c3ccc(O)cc3)nc(-c3ccccc3)n2)cc1CC=C(C)C` were 27%, 88.5%, 96.4% and 37.7%.
Turning to `COc1cc(OC)c(-c2cc(-c3ccc(O)cc3)nc(-c3ncccn3)n2)cc1CC=C(C)C`, the inhibition was determined as 33.4% in data set [1], 91.2% in data set [2], 81.2% in data set [3] and 11% in data set [4].
For the molecule `COCOc1ccc(/C=C/C(=O)c2cc(CC=C(C)C)c(OC)cc2OC)cc1`, the inhibition entry in data set [1], in data set [2], in data set [3] and in data set [4] was “inactive” in each case.
As to `COc1cc(O)c(-c2cc(-c3ccc(O)cc3)nc(N3CCOCC3)n2)cc1CC=C(C)C`, the inhibition in data set [1] was 13.8%; in data set [2], 82.1%; in data set [3] it was 94.6%; in data set [4], 24.1%.
On to `COC(=O)N1CCN(c2nc(-c3ccc(O)cc3)cc(-c3cc(CC=C(C)C)c(OC)cc3O)n2)CC1`, for which the inhibition in data set [1] was determined as 21.1%; in data set [2] it was 75.4%; in data set [3], 80.1%; in data set [4], 24.6%.
For the molecule `COc1cc(O)c(-c2cc(-c3ccc(O)cc3)nc(-c3nn(Cc4ccccc4F)c4ncccc34)n2)cc1CC=C(C)C`, the inhibition is 30.5% in data set [1], 89.4% in data set [2], 81.9% in data set [3] and 40.1% in data set [4].
With `COCOc1ccc(/C=C/C(=O)c2cc(CC=C(C)C)c(OC)cc2O)cc1`, the inhibition entry in data set [1], in data set [2], in data set [3] and in data set [4] was “inactive” throughout.
In the case of `COc1cc(O)c(-c2cc(-c3ccc(O)cc3)[nH]n2)cc1CC=C(C)C`, the inhibition entry in data set [1] is “inactive”. Further, the values for the inhibition in data set [2], in data set [3] and in data set [4] were 17.5%, 29.1% and 14.2%, respectively.
Turning to `COc1cc(O)c(C(=O)/C=C/c2ccc(O)cc2)cc1CC=C(C)C`, the inhibition in data set [6] stood at 35.8%; in data set [1], 14.9%; in data set [2], 54%; in data set [3] it was 46.3%. Further, the negative logarithm of the IC50 (pIC50) in data set [7] is below 4.70. Moreover, the inhibition entry in data set [4] was “inactive”.
With `CC(Cc1ccc(O)c(O)c1)C(C)Cc1ccc(O)c(O)c1` (stereo unspecified) [NORDIHYDROGUAIARETIC ACID], the inhibition in data set [6] is below 10%; in data set [2] it was 51.2%. In data set [7], the negative logarithm of the IC50 (pIC50) is below 4.70.
For `COc1cc(O)c(-c2cc(-c3ccc(O)cc3)nc(N3CCN(c4ncccn4)CC3)n2)cc1CC=C(C)C`, in data set [1], the inhibition result was “inactive”. Further, the inhibition in data set [2] was determined as 37.4%; in data set [3], 32.5%; in data set [4], 10.4%.
Regarding `COc1cc(O)c(-c2cc(-c3ccc(O)cc3)nc(C(C)(C)C)n2)cc1CC=C(C)C`, the inhibition in data set [1] amounted to 13.5%; in data set [2], 60.4%; in data set [3] it was 53.1%; in data set [4] it was 14.7%.

For the origin of these results see ChEMBL document CHEMBL5608173, “Discovery of novel natural-product-derived mutant isocitrate dehydrogenases 1 inhibitors: Structure-based virtual screening, biological evaluation and structure-activity relationship study” (Eur J Med Chem, 2024).
